Data published in patent publication US20210275576A1, “MOLECULAR HYDROGEN-CONTAINING COMPOSITION FOR PREVENTION AND/OR IMPROVEMENT OF GENETIC DISORDER” (MiZ Company Limited, priority 2020, published 2021).

Test system: patient diagnosed as having Down syndrome
Conditions: inhalation 1-3 hours per day for one month, hydrogen concentration 4% to 6%
Description: A patient diagnosed as having Down syndrome developed mild cognitive impairment and could not go out because of a depressive symptom. Additionally, their skin had wrinkles due to premature aging characteristic to Down syndrome.

## [HH] [hydrogen, molecular hydrogen]
  ability to go out: could go out
  motivation to learn: got motivated to learn
  skin resilience (premature aging): became resilient
  skin wrinkles (premature aging): became less noticeable
200 ml/min (Jobs-α generator)
  depressive symptom: improved
